Experimental data as given in patent US20230138395A1, “PHARMACEUTICAL COMPOSITIONS OF A THERAPEUTIC POLYENE MACROLIDE AND METHODS OF THEIR USE” (priority 2020, published 2023).
Converted amounts (≈) assume the structure as drawn.

Experiments:
C. glabrata strains [1] = assay: MIC testing (CLSI M27-A3); format: cell-based
C. parapsilosis = assay: MIC testing (CLSI M27-A3); format: cell-based
all Candida strains [2] = assay: MFC determination, summary; format: cell-based
C. krusei strains [3] = assay: MIC testing (CLSI M27-A3); format: cell-based
C. krusei strains [4] = assay: MFC determination; format: cell-based
A. fumigatus AF91 = assay: In vitro activity (MIC) against the infecting strain, Example 17; format: cell-based, Aspergillus fumigatus
Procedure: Minimum Inhibitory Concentration: MIC testing was performed according to the Clinical and Laboratory Standards Institute (CLSI) M27-A3 and M38-A2 standards for the susceptibility testing of yeasts and filamentous fungi, respectively (Cryptococcus isolates were incubated for 72 h). For yeast strains, the incubation temperature and time were 35° C. and 24-48 h, respectively, and the inoculum size was 0.5-2.5×10^3 CFU/ml. For filamentous strains, the inoculum size was 0.4-5×10^4 CFU/ml, and the incubation time was strain and drug specific. RPMI 1640 was the test medium throughout, with the exception of the use of YNB for Cryptococcus. Inhibition endpoints for compound 1A were recorded at 50% and 100% after both 24 h and 48 h incubation; caspofungin results against Aspergillus strains were read as minimum effective concentrations (MEC), the lowest concentration that leads to small, rounded, compact growth as compared to the confluent growth of the control.

C. glabrata strains [5] = assay: MFC determination; format: cell-based
Penicillium strains [6] = assay: MFC determination; format: cell-based, Penicillium spp.
Penicillium strains [7] = assay: MIC testing (CLSI M38-A2); format: cell-based, Penicillium spp.
all Candida strains [8] = assay: MIC testing (CLSI M27-A3), summary; format: cell-based
[9] = system: all Aspergillus strains tested; assay: MFC determination, summary; format: cell-based
[10] = system: individual Aspergillus spp. (Table 15, species not named); assay: MFC determination, Table 15; format: cell-based; conditions: Aspergillus sp. of Table 15
Cr. neoformans strains [11] = assay: MFC determination; format: cell-based, Cryptococcus neoformans
[12] = system: Fusarium strains (Table 18); assay: MFC determination, Table 18; format: cell-based, Fusarium spp.
Candida albicans [13] = assay: MIC testing (CLSI M27-A3); format: cell-based; conditions: for MIC Range: in µg/mL
[14] = system: Fusarium strains (Table 18); assay: MIC testing (CLSI M38-A2), Table 18; format: cell-based, Fusarium spp.
Candida albicans [15] = assay: MFC determination; format: cell-based; conditions: for MFC Range: in µg/mL
[16] = system: individual Aspergillus spp. (Table 12, species not named); assay: MIC testing (CLSI M38-A2), Table 12; format: cell-based; conditions: Aspergillus sp. of Table 12, caspofungin read as MEC
Cr. neoformans strains [17] = assay: MIC testing (CLSI M27-A3, YNB, 72 h); format: cell-based, Cryptococcus neoformans
Fusarium strains = assay: MIC testing (CLSI M38-A2), Table 17; format: cell-based, Fusarium spp.; conditions: Fusarium strains (Table 17)
[18] = system: individual Aspergillus spp. (Table 14, species not named); assay: MIC testing (CLSI M38-A2), Table 14; format: cell-based; conditions: Aspergillus sp. of Table 14, caspofungin read as MEC
[19] = system: individual Aspergillus spp. (Table 14, species not named); assay: MFC determination, Table 14; format: cell-based; conditions: Aspergillus sp. of Table 14
C. albicans SC5314 = assay: In vitro activity (MFC) against the infecting strain, Example 18; format: cell-based, Candida albicans
[20] = Fluconazole-resistant C. albicans n = 7
[21] = Fluconazole-susceptible C. albicans n = 13

C[C@@H]1[C@H](O)[C@@H](C)/C=C/C=C/C=C/C=C/C=C/C=C/C=C/[C@H](O[C@@H]2O[C@H](C)[C@@H](O)[C@H](N)[C@@H]2O)C[C@@H]2O[C@](O)(C[C@@H](O)C[C@@H](O)[C@H](O)CC[C@@H](O)C[C@@H](O)CC(=O)O[C@H]1C)C[C@H](O)[C@H]2C(=O)O [Amphotericin B]
MIC Range (C. glabrata strains [1]; C. glabrata strains, in µg/mL): 0.125-1 | MIC50 (C. glabrata strains [1]; C. glabrata, inhibits 50% of strains): 0.5 µg/mL (≈ 0.541 µM) | MIC90 (C. glabrata strains [1]; C. glabrata, inhibits 90% of strains): 0.5 µg/mL (≈ 0.541 µM) | MIC Range (C. parapsilosis; C. parapsilosis strains, in µg/mL): 0.125-1 | MIC50 (C. parapsilosis; C. parapsilosis, inhibits 50% of strains): 0.25 µg/mL (≈ 0.271 µM) | MIC90 (C. parapsilosis; C. parapsilosis, inhibits 90% of strains): 0.5 µg/mL (≈ 0.541 µM) | MFC Range (all Candida strains [2]; in µg/mL): 0.125-2 | MFC50 (all Candida strains [2]; kills 50% of strains): 0.5 µg/mL (≈ 0.541 µM) | MFC90 (all Candida strains [2]; kills 90% of strains): 1 µg/mL (≈ 1.08 µM) | MIC Range (C. krusei strains [3]; C. krusei strains, in µg/mL): 0.5-1 | MIC50 (C. krusei strains [3]; C. krusei, inhibits 50% of strains): 0.5 µg/mL (≈ 0.541 µM) | MIC90 (C. krusei strains [3]; C. krusei, inhibits 90% of strains): 1 µg/mL (≈ 1.08 µM) | MFC Range (C. krusei strains [4]; C. krusei strains, in µg/mL): 1 | MFC50 (C. krusei strains [4]; C. krusei, kills 50% of strains): 1 µg/mL (≈ 1.08 µM) | MFC90 (C. krusei strains [4]; C. krusei, kills 90% of strains): 1 µg/mL (≈ 1.08 µM) | MIC (A. fumigatus AF91): 2 µg/mL (≈ 2.16 µM) | MFC Range (C. glabrata strains [5]; C. glabrata strains, in µg/mL): 0.5-1 | MFC50 (C. glabrata strains [5]; C. glabrata, kills 50% of strains): 0.5 µg/mL (≈ 0.541 µM) | MFC90 (C. glabrata strains [5]; C. glabrata, kills 90% of strains): 1 µg/mL (≈ 1.08 µM) | MFC50 (Penicillium strains [6]; kills 50% of strains): 4 µg/mL (≈ 4.33 µM) | MFC90 (Penicillium strains [6]; kills 90% of strains): > 8 µg/mL | MIC Range (Penicillium strains [7]; Penicillium strains, in µg/mL): 0.5-4 | MIC50 (Penicillium strains [7]; Penicillium, inhibits 50% of strains): 1 µg/mL (≈ 1.08 µM) | MIC90 (Penicillium strains [7]; Penicillium, inhibits 90% of strains): 2 µg/mL (≈ 2.16 µM) | MIC Range (all Candida strains [8]; in µg/mL): 0.125-1 | MIC50 (all Candida strains [8]; inhibits 50% of strains): 0.5 µg/mL (≈ 0.541 µM) | MIC90 (all Candida strains [8]; inhibits 90% of strains): 0.5 µg/mL (≈ 0.541 µM) | MFC50 ([9]; kills 50% of strains): > 8 µg/mL | MFC90 ([9]; kills 90% of strains): > 8 µg/mL | MFC50 ([10]; kills 50% of strains): > 32 µg/mL | MFC90 ([10]; kills 90% of strains): > 32 µg/mL | MFC Range (Cr. neoformans strains [11]; Cr. neoformans strains, in µg/mL): 0.25-2 | MFC50 (Cr. neoformans strains [11]; Cr. neoformans, kills 50% of strains): 0.5 µg/mL (≈ 0.541 µM) | MFC90 (Cr. neoformans strains [11]; Cr. neoformans, kills 90% of strains): 1 µg/mL (≈ 1.08 µM) | MFC50 ([12]; kills 50% of strains): 1 µg/mL (≈ 1.08 µM) | MFC90 ([12]; kills 90% of strains): 8 µg/mL (≈ 8.66 µM) | MIC Range (Candida albicans [13]; [20]): 0.25-1 | MIC Range (Candida albicans [13]; [21]): 0.125-0.5 | MIC50 (Candida albicans [13]; Fluconazole-susceptible C. albicans n = 13, inhibits 50% of strains): 0.25 µg/mL (≈ 0.271 µM) | MIC90 (Candida albicans [13]; Fluconazole-susceptible C. albicans n = 13, inhibits 90% of strains): 0.5 µg/mL (≈ 0.541 µM) | MIC50 ([14]; inhibits 50% of strains): 0.5 µg/mL (≈ 0.541 µM) | MIC90 ([14]; inhibits 90% of strains): 2 µg/mL (≈ 2.16 µM) | MFC Range (Candida albicans [15]; [20]): 0.5-1 | MFC Range (Candida albicans [15]; [21]): 0.125-1 | MFC50 (Candida albicans [15]; Fluconazole-susceptible C. albicans n = 13, kills 50% of strains): 0.25 µg/mL (≈ 0.271 µM) | MFC90 (Candida albicans [15]; Fluconazole-susceptible C. albicans n = 13, kills 90% of strains): 1 µg/mL (≈ 1.08 µM) | MIC Range ([16]; in µg/mL): 1-8 | MIC50 ([16]; inhibits 50% of strains): 8 µg/mL (≈ 8.66 µM) | MIC90 ([16]; inhibits 90% of strains): 8 µg/mL (≈ 8.66 µM) | MIC Range (Cr. neoformans strains [17]; Cr. neoformans strains, 72 h, in µg/mL): 0.06-1 | MIC50 (Cr. neoformans strains [17]; Cr. neoformans, inhibits 50% of strains): 0.25 µg/mL (≈ 0.271 µM) | MIC90 (Cr. neoformans strains [17]; Cr. neoformans, inhibits 90% of strains): 0.5 µg/mL (≈ 0.541 µM) | MIC Range (Fusarium strains; in µg/mL): 0.5-2 | MIC50 (Fusarium strains; inhibits 50% of strains): 1 µg/mL (≈ 1.08 µM) | MIC90 (Fusarium strains; inhibits 90% of strains): 2 µg/mL (≈ 2.16 µM) | MIC Range ([18]; in µg/mL): 0.25-2 | MIC50 ([18]; inhibits 50% of strains): 1 µg/mL (≈ 1.08 µM) | MIC90 ([18]; inhibits 90% of strains): 1 µg/mL (≈ 1.08 µM) | MFC50 ([19]; kills 50% of strains): 2 µg/mL (≈ 2.16 µM) | MFC90 ([19]; kills 90% of strains): > 8 µg/mL | MFC (C. albicans SC5314): 0.25 µg/mL (≈ 0.271 µM)
